A word on the IC50: it is the midpoint of a concentration-inhibition curve. Low values mean inhibition by little substance, high ones a need for much substance.

Each structure is given as a SMILES string.

Sequence of MAPK14 (human) (Q16539 whole entry, looked up): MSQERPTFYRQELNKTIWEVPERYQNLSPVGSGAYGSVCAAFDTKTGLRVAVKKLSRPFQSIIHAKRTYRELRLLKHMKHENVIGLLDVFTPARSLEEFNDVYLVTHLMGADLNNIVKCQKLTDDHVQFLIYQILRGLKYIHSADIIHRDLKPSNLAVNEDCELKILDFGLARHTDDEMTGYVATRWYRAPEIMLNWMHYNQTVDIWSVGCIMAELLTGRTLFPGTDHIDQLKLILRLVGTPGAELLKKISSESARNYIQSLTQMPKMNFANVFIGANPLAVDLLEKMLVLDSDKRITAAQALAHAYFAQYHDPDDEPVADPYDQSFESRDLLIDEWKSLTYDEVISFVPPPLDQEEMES

The experiment has as its target MAPK14 (human) (UniProt Q16539). Description: Inhibition of MAPK14 Kinase Activity.
In the case of `CC(C)(C)C(=O)Nc1cc(Cl)c(N2CC(Cc3ccc(F)cc3F)CCC2=O)c(Cl)c1` (centres undefined), the 50% inhibitory concentration (IC50) was at most 10 µM. `O=C1CCC(Sc2cc(F)cc(F)c2)CN1c1c(Cl)cccc1Cl` (centres undefined) had an IC50 of at most 10 µM. With `Cc1cc(C#CCCN2CCOCC2)cc(C)c1N1CC(Cc2ccc(F)cc2F)CCC1=O` (centres undefined), the concentration for half-maximal inhibition (IC50) is at most 10 µM.

`O=C1CCC(C(Cl)c2ccc(F)cc2F)CN1c1c(Cl)cccc1Cl` (centres undefined) displayed an IC50 of at most 10 µM.

Compound `O=C1CCC(Oc2ccc(Cl)cc2)CN1c1c(Cl)csc1Cl` (centres undefined) came in with an IC50 of at most 10 µM. In turn, `O=C1CCC(Sc2ccccc2F)CN1c1c(Cl)cncc1Cl` (centres undefined) came in with an IC50 of at most 10 µM.

In the case of `CC(=O)Nc1cc(Cl)c(N2CC(Cc3ccc(F)cc3F)CN(C)C2=O)c(Cl)c1` (centres undefined), the half-maximal inhibitory concentration (IC50) was at most 10 µM. The result for `O=C1CCC(Cc2cc(Cl)cc(Cl)c2)CN1C1C(Cl)CCCC1Cl` (centres undefined) reads at most 10 µM; that for `O=C1NCC(Cc2ccc(F)cc2)CN1c1c(Cl)cccc1Cl` (centres undefined), at most 10 µM.

The compound `O=C1CCC(Cc2cccc3ccccc23)CN1C1C(Cl)CCCC1Cl` (centres undefined) showed an IC50 of at most 10 µM. In the case of `O=C1CCC(Cc2ccc3ccccc3c2)CN1c1c(Cl)cncc1Cl` (centres undefined), the IC50 was at most 10 µM. Regarding `CC(C)(C)OC(=O)N(CC(N)=O)c1cc(Cl)c(N2CC(Cc3ccc(F)cc3F)CCC2=O)c(Cl)c1` (centres undefined), the half-inhibitory concentration (IC50) is at most 10 µM. As for `O=C(c1ccc(F)cc1F)C1CCC(=O)N(c2c(Cl)cccc2Cl)C1` (centres undefined), the IC50 is at most 10 µM.

With `CNC(=O)CCc1cc(Cl)c(N2CC(Cc3ccc(F)cc3F)CCC2=O)c(Cl)c1` (centres undefined), the IC50 is at most 10 µM. Under `CC(=O)Nc1ncc(Cl)c(N2CC(Sc3ccc(F)cc3F)CCC2=O)c1Cl` (centres undefined) stands at most 10 µM; under `O=C1CCC(Sc2ccc(F)cc2F)CN1c1c(Cl)csc1Cl` (centres undefined), at most 10 µM; under `O=C1CCC(Sc2cc(Cl)cc(Cl)c2)CN1c1c(Cl)cccc1Cl` (centres undefined), at most 10 µM. The result for `CN1CC(Cc2ccc(F)cc2F)CN(c2c(Cl)cccc2Cl)C1=O` (centres undefined) reads at most 10 µM; that for `COc1ccc(SC2CCC(=O)N(c3c(Cl)cccc3Cl)C2)cc1` (centres undefined), at most 10 µM. In the case of `Nc1cc(Cl)c(N2CC(Cc3ccc(F)cc3F)CCC2=O)c(Cl)n1` (centres undefined), the IC50 was at most 10 µM. On to `O=C1CCC(Cc2ccc(F)cc2F)CN1c1cc(NCCO)ccc1Cl` (centres undefined), for which the IC50 was at most 10 µM.

`Cc1cc2c(cc1NC(=O)NCc1ccccc1CC1CCC(=O)N(c3c(Cl)cccc3Cl)C1)C(C)(C)CCC2` (centres undefined): the IC50 is at most 10 µM. The compound `CC(=O)Nc1cc(Cl)c(N2CC(Oc3ccc(F)cc3F)CCC2=O)c(Cl)n1` (centres undefined) registered an IC50 of at most 10 µM. Take `O=C1CCC(Cc2ccc(Cl)cc2Cl)CN1C1C(Cl)CCCC1Cl` (centres undefined): the half-inhibitory concentration (IC50) is at most 10 µM. Under `Cc1ccc(OC2CCC(=O)N(c3c(Cl)cncc3Cl)C2)c(C)c1` (centres undefined) stands at most 10 µM; under `CN1CC(=O)N(c2c(Cl)cccc2Cl)CC1Cc1ccc(F)cc1F` (centres undefined), at most 10 µM; under `CC(C)(C)OC(=O)N(CCN)c1cc(Cl)c(N2CC(Cc3ccc(F)cc3F)CCC2=O)c(Cl)c1` (centres undefined), at most 10 µM. Turning to `O=C1CCC(Oc2ccc(F)cc2F)CN1c1c(Cl)cc(CO)cc1Cl` (centres undefined), the IC50 was at most 10 µM.

Compound `O=C1CCC(Cc2cc(F)cc(F)c2)CN1c1c(Cl)ccnc1Cl` (centres undefined) returned an IC50 of at most 10 µM. `Cc1cc(C(=O)O)cc(C)c1N1CC(Cc2ccc(F)cc2F)CCC1=O` (centres undefined) showed an IC50 of at most 10 µM. Under `N[C@H]1C[C@@H](Cc2ccc(F)cc2F)CN(c2c(Cl)cccc2Cl)C1=O` stands at most 10 µM; under `CN(C)CCCCc1cc(Cl)c(N2CC(Cc3ccc(F)cc3F)CCC2=O)c(Cl)c1` (centres undefined), at most 10 µM. `O=C1CCC(Oc2ccc(F)cc2F)CN1c1c(Cl)cccc1Cl` (centres undefined): the concentration for half-maximal inhibition (IC50) is at most 10 µM.

As for `Nc1cc(Cl)c(N2CC(Cc3ccc(F)cc3F)COC2=O)c(Cl)c1` (centres undefined), the IC50 is at most 10 µM. As for `CNc1ccc(Cl)c(N2CC(Cc3ccc(F)cc3F)CN(C)C2=O)c1Cl` (centres undefined), the half-inhibitory concentration (IC50) is at most 10 µM. In turn, `O=C1CCC(Cc2ccccc2)CN1c1c(Cl)cncc1Cl` (centres undefined) returned an IC50 of at most 10 µM. In the case of `O=C1CCC(Oc2ccc(F)cc2F)CN1c1c(Cl)cnc(CO)c1Cl` (centres undefined), the IC50 was at most 10 µM. `O=C(Cc1ccccc1)Nc1ccc(Cl)c(N2CC(Oc3ccc(F)cc3F)CCC2=O)c1Cl` (centres undefined) had an IC50 of at most 10 µM. Consider `O=C1CCC(Cc2ccc(F)cc2F)CN1c1c(Cl)cc(O)cc1Cl` (centres undefined), for which the IC50 was at most 10 µM. As to `CN1CCN(C(=O)CNc2cc(Cl)c(N3CC(Cc4ccc(F)cc4F)CCC3=O)c(Cl)c2)CC1` (centres undefined), the half-inhibitory concentration (IC50) was at most 10 µM. In turn, `O=C1CCC(Oc2ccc(F)cc2)CN1c1c(Cl)cncc1Cl` (centres undefined) returned a half-inhibitory concentration (IC50) of at most 10 µM. The result for `O=C1CSC(Cc2cccc3ccccc23)CN1c1c(Cl)cccc1Cl` (centres undefined) reads at most 10 µM; that for `O=C1CCC(Cc2ccc(F)cc2F)CN1c1ccccc1CCO` (centres undefined), at most 10 µM; that for `CC(C)(C)OC(=O)Nc1ccc(N2CC(Cc3ccc(F)cc3F)CCC2=O)c(Cl)c1` (centres undefined), at most 10 µM. `O=C1CCC(Cc2ccc(F)cc2F)CN1c1cc(Cl)cc(Cl)c1` (centres undefined): the IC50 is at most 10 µM.

For `O=C1NCC(Cc2ccccc2F)CN1c1c(Cl)cccc1Cl` (centres undefined), the IC50 is at most 10 µM. The compound `O=C1OCC(Cc2ccc(Cl)cc2Cl)CN1c1c(Cl)cccc1Cl` (centres undefined) came in with an IC50 of at most 10 µM. `O=C1CCC(Oc2cc(F)cc(F)c2)CN1c1c(Cl)ccnc1Cl` (centres undefined) came in with an IC50 of at most 10 µM. In turn, `CNC1CCC(Cl)C(N2CC(Oc3ccc(F)cc3F)CCC2=O)C1Cl` (centres undefined) had an IC50 of at most 10 µM.

For the origin of these results see the Kinase Knowledgebase extract (Sharma et al. 2016).
